Experimental data reported in patent US9133207B2, “Tetrandrine derivatives with substituted 5-carbon, preparation method and use thereof” (Hangzhou Bensheng Pharmaceutical Co., Ltd., priority 2011, dated 2015).
In brackets after ≈: the same amount, converted by molar mass.

How the values were obtained:
[1] = system: RKO (human colon adenocarcinoma cell); experiment: Solid tumor cell growth inhibition, MTT, 72 h (Example 7); type: cell-based; settings: Homo sapiens; 72 h, MTT, RKO
Outline: (§1)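 Each line is plated at 4000 cells per well in high-glucose DMEM supplemented with 10% FBS. After 24 h settling, derivatives at several concentrations are mixed in and cultured 72 h; MTT then gives viable cells, with untreated wells set to 100%.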

[2] = system: Huh7 (human liver cancer cell); experiment: as above; type: cell-based; settings: Homo sapiens; 72 h, MTT, Huh-7
Outline: as §1

[3] = system: MGC 803 (human gastric cancer cell); experiment: as above; type: cell-based; settings: Homo sapiens
Outline: as §1

A549 (human lung cancer) = experiment: as above; type: cell-based; settings: Homo sapiens; 72 h, MTT, A549
Outline: as §1

[4] = system: Becap37 (human breast cancer cell); experiment: as above; type: cell-based; settings: Homo sapiens; 72 h, MTT, Becap-37
Outline: as §1

[5] = system: NB4 (acute promyelocytic leukemia, AML); experiment: Leukemia cell growth inhibition, MTT, 72 h (Example 5); type: cell-based, human; settings: Homo sapiens; 72 h, MTT
Outline: (§2)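 Viability read by MTT after 72 h of compound treatment at 37 °C under 5% CO2; each well seeded with 6000 cells in 1640 medium plus 10% fetal bovine serum, compounds at several concentrations.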

[6] = system: K562/adr (drug-resistant, chronic myeloid leukemia, CML); experiment: as above; type: cell-based, human; settings: Homo sapiens, K562/Adr; 72 h, MTT
Outline: as §2

[7] = system: H9 (acute lymphoblastic leukemia, ALL); experiment: as above; type: cell-based, human; settings: Homo sapiens; 72 h, MTT
Outline: as §2

[8] = system: Jurkat (acute lymphoblastic leukemia, ALL); experiment: as above; type: cell-based, human; settings: Homo sapiens, Jurkat; 72 h, MTT
Outline: as §2

[9] = system: Kasumi-1 (acute myeloid leukemia M2 type, AML-M2); experiment: as above; type: cell-based, human; settings: Homo sapiens, Kasumi 1
Outline: as §2

[10] = system: RPMI8226 (multiple myeloma); experiment: Multiple myeloma cell growth inhibition, MTT, 72 h (Example 6); type: cell-based, human; settings: Homo sapiens, RPMI-8226; 72 h, MTT, RPMI8226
Outline: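 Viability was read by MTT after 72 h of compound exposure at 37 °C, 5% CO2. Each well held 6000 RPMI8226 cells in 1640 medium containing 10% fetal bovine serum, with derivatives added at various concentrations.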

[11] = system: PANC-1 (pancreatic cancer); experiment: Solid tumor cell growth inhibition, MTT, 72 h (Example 7); type: cell-based, human; settings: Homo sapiens; 72 h, MTT, PANC-1
Outline: as §1

[12] = system: CaES-17 (esophageal cancer cell); experiment: as above; type: cell-based, human; settings: Homo sapiens, CaEs17; 72 h, MTT, CAES-17
Outline: as §1

PC-3 (prostate cancer) = experiment: as above; type: cell-based, human; settings: Homo sapiens; 72 h, MTT, PC-3
Outline: as §1

MG63 (osteosarcoma) = experiment: as above; type: cell-based, human; settings: Homo sapiens; 72 h, MTT, MG-63
Outline: as §1

Row | Structure (SMILES) | IC50 [1] | IC90 [1] | IC50 [2] | IC90 [2] | IC50 [3] | IC90 [3] | IC50 (A549 (human lung cancer)) | IC90 (A549 (human lung cancer)) | IC50 [4] | IC90 [4] | IC50 [5] | IC90 [5] | IC50 [6] | IC90 [6] | IC50 [7] | IC90 [7] | IC50 [8] | IC90 [8] | IC50 [9] | IC90 [9] | further results
1 | COc1ccc2cc1Oc1ccc(cc1)C[C@H]1c3cc(c(OC)cc3CCN1C)Oc1c(OC)c(OC)c(CN3CCOCC3)c3c1[C@H](C2)N(C)CC3 [BS-TE-307] | 0.95 µg/mL (≈ 1.32 µM) | 3.27 µg/mL (≈ 4.53 µM) | 3 µg/mL (≈ 4.16 µM) | 4.9 µg/mL (≈ 6.79 µM) | 3.74 µg/mL (≈ 5.18 µM) | 14.1 µg/mL (≈ 19.6 µM) | 2.3 µg/mL (≈ 3.19 µM) | 8 µg/mL (≈ 11.1 µM) | 1.79 µg/mL (≈ 2.48 µM) | 6.94 µg/mL (≈ 9.61 µM) | 0.73 µg/mL (≈ 1.01 µM) | 4.35 µg/mL (≈ 6.03 µM) | 0.25 µg/mL (≈ 0.346 µM) | 7.8 µg/mL (≈ 10.8 µM) | 0.87 µg/mL (≈ 1.21 µM) | 1.99 µg/mL (≈ 2.76 µM) | 3.08 µg/mL (≈ 4.27 µM) | 13.2 µg/mL (≈ 18.4 µM) | 1 µg/mL (≈ 1.39 µM) | 4.79 µg/mL (≈ 6.64 µM) | IC50 [10]: 0.07 µg/mL (≈ 0.097 µM); IC90 [10]: 0.42 µg/mL (≈ 0.582 µM); IC50 [11]: 3.47 µg/mL (≈ 4.81 µM); IC90 [11]: 8.88 µg/mL (≈ 12.3 µM); IC50 [12]: 1.1 µg/mL (≈ 1.52 µM); IC90 [12]: 18.8 µg/mL (≈ 26.1 µM); IC50 (PC-3 (prostate cancer)): 2.88 µg/mL (≈ 3.99 µM); IC90 (PC-3 (prostate cancer)): 6.99 µg/mL (≈ 9.68 µM); IC50 (MG63 (osteosarcoma)): 0.82 µg/mL (≈ 1.14 µM); IC90 (MG63 (osteosarcoma)): 2.32 µg/mL (≈ 3.21 µM)
2 | COc1ccc2cc1Oc1ccc(cc1)C[C@H]1c3cc(c(OC)cc3CCN1C)Oc1c(OC)c(OC)c(CN3CCC(O)CC3)c3c1[C@H](C2)N(C)CC3 [BS-TE-308] | 1.77 µg/mL (≈ 2.41 µM) | 4.03 µg/mL (≈ 5.48 µM) | 3.1 µg/mL (≈ 4.21 µM) | 4.95 µg/mL (≈ 6.73 µM) | 4.44 µg/mL (≈ 6.03 µM) | 23 µg/mL (≈ 31.3 µM) | 2.79 µg/mL (≈ 3.79 µM) | 11.2 µg/mL (≈ 15.2 µM) | 4.76 µg/mL (≈ 6.47 µM) | 11.5 µg/mL (≈ 15.6 µM) | 1.43 µg/mL (≈ 1.94 µM) | 6.61 µg/mL (≈ 8.98 µM) | 3.54 µg/mL (≈ 4.81 µM) | 12.4 µg/mL (≈ 16.8 µM) | 1.7 µg/mL (≈ 2.31 µM) | 4.68 µg/mL (≈ 6.36 µM) | 3.91 µg/mL (≈ 5.31 µM) | 12.7 µg/mL (≈ 17.3 µM) | 1.76 µg/mL (≈ 2.39 µM) | 8.69 µg/mL (≈ 11.8 µM) | IC50 [10]: 0.28 µg/mL (≈ 0.38 µM); IC90 [10]: 0.76 µg/mL (≈ 1.03 µM); IC50 [11]: 6.54 µg/mL (≈ 8.89 µM); IC90 [11]: 14.7 µg/mL (≈ 19.9 µM); IC50 [12]: 3.43 µg/mL (≈ 4.66 µM); IC90 [12]: 27.4 µg/mL (≈ 37.3 µM); IC50 (PC-3 (prostate cancer)): 5.39 µg/mL (≈ 7.32 µM); IC90 (PC-3 (prostate cancer)): 8.99 µg/mL (≈ 12.2 µM); IC50 (MG63 (osteosarcoma)): 1.38 µg/mL (≈ 1.88 µM); IC90 (MG63 (osteosarcoma)): 4.84 µg/mL (≈ 6.58 µM)
3 | COc1ccc2cc1Oc1ccc(cc1)C[C@H]1c3cc(c(OC)cc3CCN1C)Oc1c(OC)c(OC)c(CNC(C)C)c3c1[C@H](C2)N(C)CC3 [BS-TE-311] | 1.96 µg/mL (≈ 2.82 µM) | 4.25 µg/mL (≈ 6.12 µM) | 3.5 µg/mL (≈ 5.04 µM) | 4.9 µg/mL (≈ 7.06 µM) | 3.17 µg/mL (≈ 4.57 µM) | 11.8 µg/mL (≈ 17 µM) | 1.89 µg/mL (≈ 2.72 µM) | 9.07 µg/mL (≈ 13.1 µM) | 2.5 µg/mL (≈ 3.6 µM) | 7.86 µg/mL (≈ 11.3 µM) | 0.83 µg/mL (≈ 1.2 µM) | 4 µg/mL (≈ 5.76 µM) | 1.97 µg/mL (≈ 2.84 µM) | 12 µg/mL (≈ 17.3 µM) | 2.29 µg/mL (≈ 3.3 µM) | 3.99 µg/mL (≈ 5.75 µM) | 3.15 µg/mL (≈ 4.54 µM) | 9.19 µg/mL (≈ 13.2 µM) | 1.33 µg/mL (≈ 1.92 µM) | 5.63 µg/mL (≈ 8.11 µM) | IC50 [10]: 0.18 µg/mL (≈ 0.259 µM); IC90 [10]: 1.74 µg/mL (≈ 2.51 µM); IC50 [11]: 6.31 µg/mL (≈ 9.09 µM); IC90 [11]: 13.2 µg/mL (≈ 19 µM); IC50 [12]: 4.05 µg/mL (≈ 5.84 µM); IC90 [12]: 25.6 µg/mL (≈ 36.9 µM); IC50 (PC-3 (prostate cancer)): 6.04 µg/mL (≈ 8.7 µM); IC90 (PC-3 (prostate cancer)): 8 µg/mL (≈ 11.5 µM); IC50 (MG63 (osteosarcoma)): 1.89 µg/mL (≈ 2.72 µM); IC90 (MG63 (osteosarcoma)): 4 µg/mL (≈ 5.76 µM)
